Where “and” joins values, the source holds several entries; their conditions need not be identical. Equal values may be shown once.
Assays:
[1] = test system: SARS-CoV-2; experiment: Antiviral assay, virus-induced cytopathic effect; type: cell-based, SARS-CoV-2 (hCoV-19/Egypt/NRC-03/2020); settings: CC50 VERO-E6 / IC50 SARS-CoV-2
[2] = test system: MCF7 (breast) cancer cell line; experiment: MTT antiproliferative assay, MCF7; type: cell-based; settings: for IC50: Homo sapiens, MCF7, 72 h, read-out: IC50 (μM) ± SE MCF7
[3] = test system: HCT116 (colon) cancer cell line; experiment: MTT antiproliferative assay, HCT116; type: cell-based; settings: Homo sapiens, HCT-116, 72 h, read-out: IC50 (μM) ± SE HCT116
[4] = molecular target: c-kit (Homo sapiens, UniProt P10721); experiment: c-Kit ADP-Glo kinase assay; type: biochemical
[5] = molecular target: VEGFR-2 (Homo sapiens, UniProt P35968); experiment: VEGFR-2; type: biochemical; settings: for VEGFR-2 inhibitory potency relative to Sunitinib: ratio of IC50 values
[6] = test system: MCF7 cells; experiment: Cell cycle analysis by PI-flow cytometry; type: cell-based; settings: MCF7, compound at its IC50; for DNA content (%) Pre-G1: control 1.49; for DNA content (%) G2/M: control 5.09; for DNA content (%) S: control 41.12; for DNA content (%) G0-G1: control 53.79
[7] = test system: chick embryo chorioallantoic membrane (CAM) blood vessels; experiment: CAM assay; type: in vivo, chicken; settings: 20 μl of 660 μM, 3 days of treatment, n = 4, vehicle control 14.00 ± 3.00
[8] = test system: PaCa-2 (pancreatic) cancer cell line; experiment: MTT antiproliferative assay, PaCa-2; type: cell-based; settings: for IC50: PaCa-2, 72 h, read-out: IC50 (μM) ± SE PaCa-2; for Potency against PaCa2 relative to Sunitinib: ratio of IC50 values
[9] = test system: MCF7 cells; experiment: Annexin V-FITC apoptosis/necrosis study; type: cell-based; settings: MCF7, compound at its IC50; for Apoptosis (%) Late: control 0.13; for Apoptosis (%) Early: control 0.49; for Necrosis: control 0.87; for Apoptosis (%) Total: control 1.49

Sequence of VEGFR-2 (P35968 20-1356): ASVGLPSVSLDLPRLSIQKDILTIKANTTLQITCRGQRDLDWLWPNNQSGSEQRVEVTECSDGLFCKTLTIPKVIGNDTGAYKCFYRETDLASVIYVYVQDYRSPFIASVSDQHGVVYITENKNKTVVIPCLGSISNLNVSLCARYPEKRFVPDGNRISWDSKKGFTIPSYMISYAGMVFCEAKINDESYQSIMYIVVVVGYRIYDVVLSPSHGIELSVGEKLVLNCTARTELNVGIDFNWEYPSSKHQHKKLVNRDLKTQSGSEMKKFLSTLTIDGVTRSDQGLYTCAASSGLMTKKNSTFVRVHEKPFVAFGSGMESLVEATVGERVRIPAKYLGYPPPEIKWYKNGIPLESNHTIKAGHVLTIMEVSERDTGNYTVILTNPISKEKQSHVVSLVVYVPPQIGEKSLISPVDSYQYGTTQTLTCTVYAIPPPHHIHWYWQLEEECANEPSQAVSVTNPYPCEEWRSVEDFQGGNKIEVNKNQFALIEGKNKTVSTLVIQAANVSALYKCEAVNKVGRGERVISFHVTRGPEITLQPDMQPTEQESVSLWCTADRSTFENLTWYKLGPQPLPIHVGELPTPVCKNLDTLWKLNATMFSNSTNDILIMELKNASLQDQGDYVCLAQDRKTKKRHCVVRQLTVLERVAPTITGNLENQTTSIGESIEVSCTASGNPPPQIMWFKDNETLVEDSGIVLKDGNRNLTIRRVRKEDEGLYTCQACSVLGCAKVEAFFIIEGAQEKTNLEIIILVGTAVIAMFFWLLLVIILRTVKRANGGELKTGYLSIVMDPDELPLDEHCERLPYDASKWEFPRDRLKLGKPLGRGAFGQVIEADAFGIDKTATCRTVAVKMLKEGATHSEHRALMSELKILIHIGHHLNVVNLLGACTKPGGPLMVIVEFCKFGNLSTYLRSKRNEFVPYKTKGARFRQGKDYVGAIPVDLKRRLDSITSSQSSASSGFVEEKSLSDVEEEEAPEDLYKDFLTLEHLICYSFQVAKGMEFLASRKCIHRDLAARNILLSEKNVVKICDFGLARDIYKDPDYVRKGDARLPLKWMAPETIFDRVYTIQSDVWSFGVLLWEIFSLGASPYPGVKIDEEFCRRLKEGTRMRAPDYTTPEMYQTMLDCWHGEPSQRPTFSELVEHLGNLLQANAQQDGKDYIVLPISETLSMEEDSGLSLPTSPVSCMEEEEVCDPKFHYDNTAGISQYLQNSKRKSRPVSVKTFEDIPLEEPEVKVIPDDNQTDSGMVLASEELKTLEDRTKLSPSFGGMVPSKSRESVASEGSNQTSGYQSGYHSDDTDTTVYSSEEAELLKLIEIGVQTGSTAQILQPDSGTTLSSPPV
Sequence of c-kit (P10721 26-976): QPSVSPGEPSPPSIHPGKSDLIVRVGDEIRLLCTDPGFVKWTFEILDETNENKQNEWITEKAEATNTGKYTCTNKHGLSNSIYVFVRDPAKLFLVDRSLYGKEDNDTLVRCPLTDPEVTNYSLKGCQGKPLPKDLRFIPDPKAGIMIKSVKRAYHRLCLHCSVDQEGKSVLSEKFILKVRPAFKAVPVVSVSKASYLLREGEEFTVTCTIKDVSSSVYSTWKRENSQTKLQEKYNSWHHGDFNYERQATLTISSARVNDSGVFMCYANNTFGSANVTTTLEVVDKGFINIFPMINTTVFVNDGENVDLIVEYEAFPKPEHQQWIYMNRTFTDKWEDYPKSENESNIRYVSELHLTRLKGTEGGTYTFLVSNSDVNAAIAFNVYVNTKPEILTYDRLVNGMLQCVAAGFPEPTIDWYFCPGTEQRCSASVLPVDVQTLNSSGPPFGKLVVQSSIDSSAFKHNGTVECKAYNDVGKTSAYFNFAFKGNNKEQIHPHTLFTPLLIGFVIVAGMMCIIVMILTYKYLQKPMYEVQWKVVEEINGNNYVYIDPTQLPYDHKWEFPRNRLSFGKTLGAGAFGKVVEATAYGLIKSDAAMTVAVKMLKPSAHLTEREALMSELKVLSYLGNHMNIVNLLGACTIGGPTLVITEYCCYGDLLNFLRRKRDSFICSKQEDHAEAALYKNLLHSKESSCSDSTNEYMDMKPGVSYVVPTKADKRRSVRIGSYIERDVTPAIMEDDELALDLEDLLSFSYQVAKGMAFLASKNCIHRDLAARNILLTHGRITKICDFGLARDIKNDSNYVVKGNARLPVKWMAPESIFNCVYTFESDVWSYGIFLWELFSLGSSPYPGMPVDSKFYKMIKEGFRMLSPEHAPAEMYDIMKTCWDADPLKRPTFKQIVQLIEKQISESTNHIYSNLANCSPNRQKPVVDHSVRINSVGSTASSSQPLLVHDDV

SMILES | SI (Selectivity index/therapeutical index) = CC50/IC50 [1] | IC50 [2] [µM] | IC50 [3] [µM] | IC50 [4] [µM] | IC50 [5] [µM] | DNA content (%) G2/M [6] [%] | DNA content (%) S [6] [%] | DNA content (%) G0-G1 [6] [%] | Mean diameter of blood vessels (mm ± SD) [7] | IC50 [8] [µM] | Potency against PaCa2 relative to Sunitinib [8] | also measured
CCN(CC)CCCC(C)Nc1ccnc2cc(Cl)ccc12 (stereo not drawn) [Chloroquine, reference compound] | 19.1 | – | – | – | – | – | – | – | – | – | – | –
CS(=O)(=O)Oc1ccc(C(=O)/C=C2/C(=O)Nc3ccccc32)cc1 [Compound 6a, (E)-4-[2-(2-Oxoindolin-3-ylidene)acetyl]phenyl methanesulfonate] | 362.5 | 6.85 ± 0.37 | 16.4 ± 0.7 | 0.12 ± 0.012 | 0.054 ± 0.0054 | 2.67 | 43.25 | 54.08 | 3.20 ± 1.00 mm | 8.3 ± 0.44 | – | DNA content (%) Pre-G1 [6]: 34.71%
CCS(=O)(=O)Oc1ccc(C(=O)/C=C2/C(=O)Nc3ccccc32)cc1 [Compound 6b, (E)-4-[2-(2-Oxoindolin-3-ylidene)acetyl]phenyl ethanesulfonate] | 23.8 | 4.25 ± 0.23 | 12.8 ± 1.41 | 0.248 ± 0.0248 | 0.0989 ± 0.0099 | 2.67 | 43.25 | 54.08 | 5.10 ± 1.00 mm | 5.6 ± 0.57 | three time folds | Apoptosis (%) Late [9]: 22.91%; Apoptosis (%) Early [9]: 2.51%; Necrosis [9]: 9.29%; Apoptosis (%) Total [9]: 34.71%; Cell cycle phase arrested [6]: arrests the cell cycle at G1/S phase; Decrease in cell population at G2/M relative to control [6]: 47.5%
CCS(=O)(=O)Oc1ccc(C(=O)/C=C2/C(=O)Nc3ccc(Cl)cc32)cc1 [Compound 6c, (E)-4-[2-(5-Chloro-2-oxoindolin-3-ylidene)acetyl]phenyl ethanesulfonate] | 26.4 | 4.28 ± 0.51 | 5.33 ± 0.46 | 0.0723 ± 0.0072 | 0.0369 ± 0.0037 | – | – | – | 5.1 mm and 5.13 ± 0.90 mm | 4.99 ± 0.29 | about 3.4 folds | VEGFR-2 inhibitory potency relative to Sunitinib [5]: 1.3 fold
CS(=O)(=O)N(c1ccc(C(=O)/C=C2/C(=O)Nc3ccccc32)cc1)S(C)(=O)=O [Compound 10a, (E)-N-(Methylsulfonyl)-N-{4-[2-(2-oxoindolin-3-ylidene)acetyl]phenyl}methanesulfonamide] | 7.4 | 6.07 ± 0.83 | 21 ± 1.75 | 0.103 ± 0.0103 | 0.102 ± 0.0102 | 4.11 | 54.18 | 41.71 | 3.50 ± 0.50 mm | 6.91 ± 0.89 | – | DNA content (%) Pre-G1 [6]: 28.25%
CCS(=O)(=O)N(c1ccc(C(=O)/C=C2/C(=O)Nc3ccccc32)cc1)S(=O)(=O)CC [Compound 10b, (E)-N-(Ethylsulfonyl)-N-{4-[2-(2-oxoindolin-3-ylidene)acetyl]phenyl}ethanesulfonamide] | 165.6 | 4.15 ± 0.78 | 13.8 ± 1.06 | 0.185 ± 0.0185 | 0.0741 ± 0.0074 | – | 54.18 | – | 2.70 ± 0.40 mm | 5.08 ± 0.57 | ~3.3 folds | Apoptosis (%) Late [9]: 17.15%; Apoptosis (%) Early [9]: 4.03%; Necrosis [9]: 7.07%; Apoptosis (%) Total [9]: 28.25%; Cell cycle phase arrested [6]: arrest the tested cell at S phase; Increment in S phase relative to control [6]: about 13%
CCS(=O)(=O)N(c1ccc(C(=O)/C=C2/C(=O)Nc3ccc(Cl)cc32)cc1)S(=O)(=O)CC [Compound 10c, (E)-N-{4-[2-(5-Chloro-2-oxoindolin-3-ylidene)acetyl]phenyl}-N-(ethylsulfonyl)ethanesulfonamide] | 75.5 | 4.43 ± 0.47 | > 50 | 0.0817 ± 0.0082 | 0.0534 ± 0.0053 | – | – | – | 5.0 mm and 5.00 ± 0.40 mm | 6.18 ± 0.32 | – | Potency against MCF7 relative to Sunitinib ([2]; ratio of IC50 values): 0.9 fold; VEGFR-2 inhibitory potency relative to Sunitinib [5]: 0.89 fold
NC(=O)c1nc(F)c[nH]c1=O [Favipiravir, reference compound] | 1.9 | – | – | – | – | – | – | – | – | – | – | –
CCN(CCO)CCCC(C)Nc1ccnc2cc(Cl)ccc12 (stereo not drawn) [Hydroxychloroquine, reference compound] | 12.2 | – | – | – | – | – | – | – | – | – | – | –
CCN(CC)CCNC(=O)c1c(C)[nH]c(/C=C2\C(=O)Nc3ccc(F)cc32)c1C [Sunitinib, reference compound] | – | – | 5.03 ± 0.3 | – | – | – | – | – | 5 mm and 5.0 mm and 5.00 ± 0.71 mm | 16.9 ± 0.95 | – | –

Reference: PMC8241580 (Bioorganic Chemistry, 2021)
